Results reported in PMC12628652, “A Validated UPLC‐MS/MS Method for Monitoring Temozolomide and Perillyl Alcohol Metabolites in Biological Matrices: Insights From a Preclinical Pharmacokinetic Study” (Biomedical Chromatography, 2025).
“Also recorded” adds a separate entry of the source.

Legend:
[1] = Biodistribution study in rats 4 h after single oral administration of POH and TMZ; assay type: in vivo, Male Wistar rats; conditions: n = 4; for tissue concentrations (brain, liver, spleen, kidney, lung), in words: rats
Description: Following blood collection, animals were anesthetized and euthanized, and their organs (kidneys, liver, spleen, brain, and lungs) were promptly excised and stored at −20°C. Tissue samples were homogenized in PBS (pH 7.4) at a ratio of 1 part tissue to 5 parts buffer (w/v), using a mechanical homogenizer equipped with a 5 mm probe.
For chromatographic analysis, 200 μL of each tissue homogenate was mixed with 50 μL of IS solution (final IS concentration: 100 ng/mL) and 750 μL of ACN to reach a final volume of 1 mL. The mixture was centrifuged at 3500 rpm for 10 min at 20°C. The supernatant was collected, filtered through a 0.22 μm membrane, and transferred to injection vials for UPLC‐MS/MS analysis. When necessary, samples were diluted appropriately to ensure analyte concentrations fell within the validated linear range.
(§1) The pharmacokinetic and biodistribution study was conducted in accordance with ethical guidelines and approved by the Animal Ethics Committee of the Universidade Estadual do Centro‐Oeste, Brazil (Protocol No. 026/2023). Male Wistar rats (n = 6 for pharmacokinetics; n = 4 for biodistribution), weighing approximately 200 g, were housed under controlled environmental conditions (12 h light/dark cycle, 35% relative humidity, and temperature of 23°C ± 2°C). Animals had free access to food and water, which were withheld 10 h prior to drug administration and resumed 2 h afterward.
(§2) Each animal received a single oral dose of POH (47 mg/kg) and TMZ (2 mg/kg). For pharmacokinetic profiling, blood samples were collected via the tail vein into heparinized tubes at predefined time points: 0.5, 1, 2, 4, 8, 12, and 24 h post‐administration. For biodistribution analysis, a separate cohort of rats (n = 4) was sacrificed 4 h after dosing. Organs, including the brain, liver, lungs, kidneys, and spleen, were collected, homogenized, and stored at −20°C for subsequent quantification, as detailed in Section 3.2.

[2] = Pharmacokinetic study in rats after single oral administration of POH and TMZ (plasma, UPLC-MS/MS); assay type: in vivo, Male Wistar rats; conditions: rat plasma; for Tmax / half-life / k el / AUC(0-t) / Cmax: male, Wistar; for AUC(0-t): read-out: AUC0–24h
Description: Approximately 200 μL of whole blood was collected from the tail vein of each rat. Samples were centrifuged at 3500 rpm for 10 min at 20°C to separate the plasma. Plasma samples were then subjected to liquid–liquid extraction with ACN. The mixture was centrifuged again at 3500 rpm for 10 min at 4°C. The resulting supernatant was filtered through hydrophobic 0.22 μm membranes and transferred to autosampler vials. A 2 μL aliquot of each sample was injected into the UPLC‐MS/MS system for analysis.
Thawed plasma samples (50 μL) were also prepared by protein precipitation. Each sample was mixed with 50 μL of IS solution and 900 μL of ACN, followed by centrifugation at 3500 rpm for 10 min at 20°C. The supernatants were filtered and analyzed as described. All dilutions were performed based on analyte concentration to ensure compliance with the method's validated dynamic range.
as §1, §2
Pharmacokinetic parameters were calculated using non‐compartmental analysis with the PKSolver plugin for Microsoft Excel. The following parameters were determined: area under the plasma concentration–time curve from 0 to 24 h (AUC0–24h), maximum plasma concentration (Cmax), time to reach Cmax (tmax), elimination half‐life (t1/2), volume of distribution (VD), and total clearance (CL).

[3] = rat brain, 4 h after single oral dose POH 47 mg/kg and TMZ 2 mg/kg
[4] = 4 h after single oral dose POH 47 mg/kg and TMZ 2 mg/kg
[5] = single oral dose POH 47 mg/kg and TMZ 2 mg/kg, n = 6

## NC(=O)c1[nH]cnc1N [AIC, 5‐aminoimidazole‐4‐carboxamide]
[1]; [3]
  brain concentration / CNS penetration, in words: lower brain concentrations
[1]; [4]
  tissue concentrations (brain, liver, spleen, kidney, lung), in words: lowest tissue concentrations
[2]; [5]
  Tmax: 1 h
  half-life: 18.5 h
  k el: 1.03e-05 s⁻¹
  AUC(0-t): 2190 ng·h/mL
  CL: 3.83 mL/min/kg
  Vd: 6.09 L/kg

## C=C(C)[C@@H]1CC=C(C(=O)O)CC1 [PA, perillic acid]
[1]; [3]
  brain concentration / CNS penetration, in words: limited brain penetration; also recorded: lower brain concentrations
[1]; rat liver, 4 h after single oral dose POH 47 mg/kg and TMZ 2 mg/kg
  hepatic accumulation, in words: marked hepatic accumulation
[1]; [4]
  tissue concentrations (brain, liver, spleen, kidney, lung), in words: mainly distributed to liver and kidneys
[2]; single oral dose POH 47 mg/kg
  Tmax: ≤ 0.5 h
[2]; [5]
  Cmax: 704 ng/mL
  Tmax: 0.5 h
  half-life: 19 h
  k el: 1e-05 s⁻¹
  AUC(0-t): 2200 ng·h/mL
  CL: 3.83 mL/min/kg
  Vd: 6.26 L/kg

## Cn1nnc2c(C(N)=O)ncn2c1=O [TMZ, Temozolomide]
[1]; male, Wistar, rat brain, 4 h after single oral dose TMZ 2 mg/kg and POH 47 mg/kg
  concentration at 4 h: ~1000 ng/mL
[1]; [3]
  brain concentration / CNS penetration, in words: highest concentration in the brain
[1]; [4]
  tissue concentrations (brain, liver, spleen, kidney, lung), in words: highest tissue concentrations in all organs
[2]; [5]
  Cmax: 1450 ng/mL
  Tmax: 1 h
  half-life: 18.4 h
  k el: 1.03e-05 s⁻¹
  AUC(0-t): 8170 ng·h/mL
  CL: 1.5 mL/min/kg
  Vd: 1.75 L/kg
